Measurements reported in patent publication EP0642343B1, “Acridine carboxamides for the treatment of cancer” (XENOVA LIMITED, priority 1992, dated 1993).
Like-named read-outs stand apart in the source and are kept apart here.

Tests used:
[1] = test system: advanced colon 38 tumours; assay: Tumour growth delay, advanced subcutaneous colon 38 tumours in mice; assay type: in vivo
Protocol: Colon 38 carcinoma was obtained from the Mason Research Institute (Worchester, MA, USA) and was grown in BDF1 hosts. Tumour fragments (1 mm^3) were implanted subcutaneously in anaesthetised mice. Tumours had grown to the appropriate size 9 days after implantation. A melanoma tumour line (WADH) was developed in the Cancer Research Laboratory. Tumour cells were grown in culture and 1 x 10^6 cells were implanted intradermally into the flank of nude (C57BI/J genetic background) mice. Mice were grown under sterile surroundings until tumours were of appropriate size.
Tumours were measured 3x (colon 38) or 2x (xeno-graft) weekly with callipers and tumour volumes calculated as 0.52a^2b, where a and b were the minor and major tumour axes. Tumour growth delays were measured at a time when tumour volumes of treated and control animals had increased by 4-fold.
The effects of five compounds, • (i) DACA • (ii) N-[2-(dimethylamino)ethyl]-9-methoxyphen-azine-1-carboxamide (compound 28 of J. Med. Chem., 1987, 30, 843-851), • (iii) N-[2-(dimethylamino) ethyl]-2-phenylquino-line-8-carboxamide (compound 6 of J. Med. Chem. 1988, 31, 1048-1052), • (iv) N-[2-(dimethylamino)ethyl]-2-(4-pyridyl)-guinoline-8-carboxamide (compound 18 of J. Med. Chem., 1989, 32, 396-401), and • (v) N-[2-(dimethylamino)ethyl]-9-bromo-dibenzo-[1,4]-dioxin-1-carboxamide (compound 20 of J. Med. Chem. 1992, 35, 258-266) on the growth of advanced colon 38 tumours in mice was investigated by implanting tumour fragments subcutaneously and allowing them to grow until they had reached a diameter of 5-8 mm.

[2] = test system: subcutaneous melanoma xenografts growing in nude mice; conditions: summary given by Berger et al.; cited from earlier work
[3] = test system: human cell lines; assay: Cytotoxicity under continuous drug exposure, mean over human cell lines; assay type: cell-based; conditions: read-out: mean IC50 value for human cell lines
Protocol: The latter value compared with 2 µM for the 4-pyridyl-quinoline analogue, 0.76 µM for amsacrine, 0.1 µM for the amsacrine analogue 4'-(9-[4-[N-methylcarboxamido]-5-methyl]-acridinylamino)-methanesulphon-m-anisidide ("CI-921") and 81 µM for etoposide.

[4] = test system: primary human melanoma cultures; assay: cells; conditions: for IC50: Homo sapiens, read-out: mean IC50
Protocol: Acridine carboxamide hydrochloride, synthesised in the Cancer Research Laboratory (Atwell G.J., et al., J.Med. Chem. 1987, 30, 664-669), and amsacrine isethionate, obtained from the Parke-Davis Division of the Warner-Lambert Company, Ann Arbor, USA, were dissolved in 50% v/v aqueous ethanol to make stock solutions of 2-5 mmol/l and stored at -20°C. Other cytotoxic drugs were available either from the NCI repository (Monks A., et al., J. Natl. Cancer Inst. 1991, 83, 757-766) or were obtained as described in Marshall E.S., et al., J. Natl. Cancer Inst. 1992, 84, 341-344 and Finlay, et al., Eur. J. Cancer din. Oncol. 1986, 22, 655-662. Cell lines were from the NCI repository except for MM-96 (Dr. R. Whitehead, Ludwig Institute, Melbourne, Australia), FME (Dr. K.M. Tveit, Norwegian Radium Hospital, Oslo, Norway) and Jurkat normal and multidrug-resistant lines (Dr. K. Snow and Dr. W. Judd, Department of Cellular and Molecular Biology, University of Auckland). Melanoma tissue was obtained from patients with pathologically confirmed metastatic and recurrent melanomas under Auckland Hospital Ethical Committee guidelines. Cells were released by digestion of tissue (at 50 mg.ml^-1) with collagenase (1 mg.ml^-1) and DNAase (50 µg.ml^-1) with continuous stirring at 37°C for 1 to 2 hours, and cultured as previously described (Marshall E.S., et al., J. Natl. Cancer Inst. 1992, 84, 341-344).
(§1) Tumour cell lines were cultured in 96-well plates. Growth of NCI cell lines was assessed using sulpho-rhodamine B staining (Skehan P., et al., J. Natl. Cancer Inst. 1990, 82, 1107-1112), that of the leukaemia lines with (4,5-dimethylthiazole-2-yl)-2,5-diphenyltetrazolium (MTT) staining (Mosmann T., J. Immun. Methods 1983, 65, 55-63) and that of the primary human tumour material by ^3H-thymidine incorporation (Marshall E.S., et al., J. Natl. Cancer Inst. 1992, 84, 341-344). Primary tumour material was cultured in 96-well plates in which the wells were coated with agarose to inhibit selectively the growth of normal cells. (Marshall E.S., et al., J. Natl. Cancer Inst. 1992, 84, 341-344). Primary cultures were incubated at 37°C in sealed perspex boxes containing a humidified atmosphere of 5% CO2 and 5% O2 in nitrogen for 7 days. 5-Methyl-[^3H]-thymidine (20 Ci.mmol^-1; 0.04 µCi per well), thymidine and 5-fluorodeoxyuridine (each at final concentrations of 0.5 µM) were added in medium to cultures (20 µl per well) 24 h before terminating the cultures. Cells were aspirated on to glass fibre filters using a multiple automated sample harvester (LKB Wallac OY Beta Harvester). The filter discs were washed for 15 seconds with water, dried, and the amount of tritium retained quantified by liquid scintillation.
(§2) IC50 values were defined as in Paull K.D., et al., J. Natl. Cancer Inst. 1989, 81:1088-1092, where growth, as indicated by staining or thymidine incorporation, corresponded to 50% of that of the control cultures. […] Variances of DELTA values were expressed as standard deviations in log10 units. Comparison of DELTA values was made using Pearson correlation coefficients. Resistance factors were defined as the ratios of IC50 values between the resistant line and the parent line. Statistical evaluation was performed either with NCI programmes, with RS/1 software (BBN Research Systems, Cambridge, MA, USA), or with Sigmaplot (Jandel Scientific, San Rafael, CA, USA).
DACA was also compared in a series of 12 primary melanoma cultures. Tissue was excised from human malignant melanomas and cultured using a modified 96-well assay system in which the cells were cultured on agarose and assayed for proliferation using the ^3H-thymidine incorporation assay as described in Marshall E.S., et al., J. Natl. Cancer Inst. 1992, 84, 341-344.

[5] = test system: LA; assay: Resistance factor, drug-resistant Jurkat leukaemia subline; assay type: cell-based, human
Protocol: as §1, §2
(§3) The effect of DACA on the growth of cultured cells was assessed by continuous drug exposure. […] Four multidrug-resistant cell lines, developed from JL and JB1 by in vitro exposure to increasing concentrations of doxorubicin (LD and B1D) or amsacrine (LA and B1A) (Finlay G.J., et al., J. Natl. Cancer Inst. 1990, 82, 662-667, Snow K., et al., Br. J. Cancer 1991, 63, 17-28) were tested.
(§4) DACA was compared with six other drugs including four topo II poisons, doxorubicin, mitozantrone, etopo-side and amsacrine. […]

[6] = test system: B1A; assay: as above; assay type: cell-based, human
Protocol: as §1, §2, §3, §4

[7] = test system: LD; assay: as above; assay type: cell-based, human
Protocol: as §1, §2, §3, §4

[8] = test system: B1D; assay: as above; assay type: cell-based, human
Protocol: as §1, §2, §3, §4

[9] = test system: sublines of Jurkat leukaemia cells; assay: Cross-resistance of Jurkat sublines selected for resistance to amsacrine; assay type: cell-based, human; conditions: two lines selected for resistance to amsacrine
Protocol: Two of these lines had been selected for resistance to amsacrine, and were more than 100-fold cross-resistant to amsacrine but only 2- to 4-fold cross-resistant to DACA. […] We believe that this ability to overcome resistance mechanisms accounts for the different IC50 patterns observed with the human cell line panels.
Tumour cell lines were cultured in 96-well plates. […] Primary cultures were incubated at 37°C in sealed perspex boxes containing a humidified atmosphere of 5% CO2 and 5% O2 in nitrogen for 7 days. 5-Methyl-[^3H]-thymidine (20 Ci.mmol^-1; 0.04 µCi per well), thymidine and 5-fluorodeoxyuridine (each at final concentrations of 0.5 µM) were added in medium to cultures (20 µl per well) 24 h before terminating the cultures.
1989, 81:1088-1092, where growth, as indicated by staining or thymidine incorporation, corresponded to 50% of that of the control cultures.

[10] = test system: panel of cell lines encompassing a number of tumour types; assay: NCI cell line panel, growth inhibition by protein staining; assay type: cell-based; conditions: data provided by the National Cancer Institute
Protocol: as §1, §2

[11] = maximum tolerated dose of the comparison drug
[12] = 100mg/kg each injection, ip, 2 doses, 0, 60 min
[13] = LA (from L by exposure to amsacrine), ratio of IC50 resistant line / parent line
[14] = B1A (from B1 by exposure to amsacrine), ratio of IC50 resistant line / parent line
[15] = LD (from L by exposure to doxorubicin), ratio of IC50 resistant line / parent line
[16] = B1D (from B1 by exposure to doxorubicin), ratio of IC50 resistant line / parent line
[17] = human, jurkat leukaemia sublines

O=c1[nH]cc(F)c(=O)[nH]1 [5-fluorouracil, reference compound]
Growth delay [1, 11]: 13 days | Percentage of xenografts responding [2]: 14%

COc1cccc2nc3cccc(C(=O)NCCN(C)C)c3nc12 [(ii), N-[2-(dimethylamino)ethyl]-9-methoxyphen-azine-1-carboxamide]
Growth delay (days) [1, 12]: 5,5 (2 expts) days

CN(C)CCNC(=O)c1cccc2ccc(-c3ccccc3)nc12 [(iii), N-[2-(dimethylamino)ethyl]-2-phenylquino-line-8-carboxamide]
Growth delay ([1]; 75mg/kg each injection, ip, 2 doses, 0,60 min): 8.5 days

CN(C)CCNC(=O)c1cccc2ccc(-c3ccncc3)nc12 [(iv), N-[2-(dimethylamino)ethyl]-2-(4-pyridyl)-guinoline-8-carboxamide]
IC50 ([3]; continuous drug exposure over approx. 5 cell doubling times): 2000 nM | Growth delay ([1]; 50mg/kg each injection, ip, 2 doses, 0,60 min): 5 days

CN(C)CCNC(=O)c1cccc2c1Oc1c(Br)cccc1O2 [(v), N-[2-(dimethylamino)ethyl]-9-bromo-dibenzo-[1,4]-dioxin-1-carboxamide]
Growth delay [1, 12]: 7 days

CNC(=O)c1cccc2c(Nc3ccc(NS(C)(=O)=O)cc3OC)c3cccc(C)c3nc12 [CI-921, 4'-(9-[4-[N-methylcarboxamido]-5-methyl]-acridinylamino)-methanesulphon-m-anisidide]
IC50 [3]: 100 nM

N.N.[Cl][Pt][Cl] [Cisplatin]
Percentage of xenografts responding [2]: 13%

CN(Cc1cnc2nc(N)nc(N)c2n1)c1ccc(C(=O)N[C@@H](CCC(=O)O)C(=O)O)cc1 [Methotrexate]
Percentage of xenografts responding [2]: 7%

CC[C@]1(O)C[C@@H]2CN(CCc3c([nH]c4ccccc34)[C@@](C(=O)OC)(c3cc4c(cc3OC)N(C)[C@H]3[C@@](O)(C(=O)OC)[C@H](OC(C)=O)[C@]5(CC)C=CCN6CC[C@]43[C@@H]65)C2)C1 [Vinblastine]
Percentage of xenografts responding [2]: 10%

COc1cc(NS(C)(=O)=O)ccc1Nc1c2ccccc2nc2ccccc12 [amsacrine]
IC50 [4]: 128 nM | IC50 [3]: 760 nM | Growth delay [1, 11]: 2 days | Resistance factors [5, 13]: 130 | Resistance factors [6, 14]: 240 | Resistance factors [7, 15]: 110 | Resistance factors [8, 16]: 8.8 | cross-resistance [9]: more than 100 fold | IC50 [10]: 520 nM

CC[C@@]1(O)C(=O)OCc2c1cc1n(c2=O)Cc2cc3ccccc3nc2-1 [camptothecin]
Resistance factors [5, 13]: 1.0 | Resistance factors [6, 14]: 0.48 | Resistance factors [7, 15]: 0.97 | Resistance factors [8, 16]: 0.86

O=P1(N(CCCl)CCCl)NCCCO1 (centres unmarked) [cyclophosphamide, reference compound]
Growth delay [1, 11]: 6.5 days | Percentage of xenografts responding [2]: 11%

COc1cccc2c1C(=O)c1c(O)c3c(c(O)c1C2=O)C[C@@](O)(C(=O)CO)C[C@@H]3O[C@H]1C[C@H](N)[C@H](O)[C@H](C)O1 [doxorubicin]
IC50 [4]: 56 nM | Resistance factors [5, 17]: 3.8 | Resistance factors [6, 17]: 11 | Resistance factors [7, 17]: 16 | Resistance factors [8, 17]: 15 | IC50 [10]: 140 nM | Percentage of xenografts responding [2]: 5% (total of 5 studies)

COc1cc([C@@H]2c3cc4c(cc3[C@@H](O[C@@H]3O[C@@H]5CO[C@@H](C)O[C@H]5[C@H](O)[C@H]3O)[C@H]3COC(=O)[C@H]23)OCO4)cc(OC)c1O [etoposide]
IC50 [4]: 2200 nM | proportions of cells killed ([4]; human, primary melanoma cultures): ≤ 90% | IC50 [3]: 81000 nM | Resistance factors [5, 17]: 11 | Resistance factors [6, 17]: 22 | Resistance factors [7, 17]: 93 | Resistance factors [8, 17]: 83 | IC50 [10]: 21000 nM | Percentage of xenografts responding [2]: 0% (2 studies)

O=C1c2c(O)ccc(O)c2C(=O)c2c(NCCNCCO)ccc(NCCNCCO)c21 [mitoxantrone]
Resistance factors [5, 13]: 42 | Resistance factors [6, 14]: 59 | Resistance factors [7, 15]: 160 | Resistance factors [8, 16]: 8.4

CC[C@]1(O)C[C@H]2CN(CCc3c([nH]c4ccccc34)[C@@](C(=O)OC)(c3cc4c(cc3OC)N(C=O)[C@H]3[C@@](O)(C(=O)OC)[C@H](OC(C)=O)[C@]5(CC)C=CCN6CC[C@]43[C@@H]65)C2)C1 [vincristine]
Resistance factors [5, 17]: 1.5 | Resistance factors [6, 17]: 2.0 | Resistance factors [7, 17]: 3.6 | Resistance factors [8, 17]: 10 | Percentage of xenografts responding [2]: 43%

Bleomycin
Percentage of xenografts responding [2]: 0%

Mitomycin C
Percentage of xenografts responding [2]: 32%
